One experiment addresses T1, NAMPT (Homo sapiens, UniProt P43490).
T1 construct: His tag; host or cells: E. coli
The experiment is described as follows: Biochemical inhibition assay: NAMPT enzymatic reaction, NMN quantified by mass spectrometry. As to conditions: NAMPT enzymatic reaction; read-out: Biochem IC50. A digest of the protocol:
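Inhibition of E. coli-expressed His-tagged human NAMPT, measured as NMN formation by mass spectrometry after a 30 min room-temperature reaction containing 1 μM NAM, 100 μM PRPP and 2.5 mM ATP.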

The subject of a further experiment is A2780 cells. The experiment is described as follows: In-vitro cell proliferation assay (SRB), A2780 cells. The class given is cell-based. As to conditions: Homo sapiens, A2780, 72 h, A2780 cells, 72 hours, SRB; read-out: A2780 IC50. In a few lines:
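Viable cells measured by SRB staining after 6% TCA fixation, absorbance 570 nm. Media-only background subtracted; % inhibition derived at two compound concentrations.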

T1 sequence (P43490 whole entry): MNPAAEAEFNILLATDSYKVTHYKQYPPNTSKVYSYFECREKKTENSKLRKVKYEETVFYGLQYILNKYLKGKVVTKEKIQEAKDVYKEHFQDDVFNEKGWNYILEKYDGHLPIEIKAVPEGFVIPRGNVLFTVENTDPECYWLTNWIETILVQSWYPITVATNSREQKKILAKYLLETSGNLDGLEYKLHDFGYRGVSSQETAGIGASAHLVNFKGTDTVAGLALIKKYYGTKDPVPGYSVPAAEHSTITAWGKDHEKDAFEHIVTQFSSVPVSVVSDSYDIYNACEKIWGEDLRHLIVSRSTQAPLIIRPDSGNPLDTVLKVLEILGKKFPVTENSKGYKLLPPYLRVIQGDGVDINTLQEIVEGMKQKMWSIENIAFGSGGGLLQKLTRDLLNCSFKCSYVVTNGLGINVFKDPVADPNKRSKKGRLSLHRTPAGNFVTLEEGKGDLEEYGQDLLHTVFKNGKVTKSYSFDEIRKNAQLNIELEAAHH

For orientation: IC50 means the point on the concentration scale where inhibition reaches its midpoint. On to `CCCOc1ccc(S(=O)(=O)c2ccc(CNC(=O)c3cc4ccncc4s3)cc2)cc1F`, for which the half-inhibitory concentration (IC50) at NAMPT was 3.7 nM; with A2780 cells it was 8.1 nM.
For `COc1c(Cl)ccc(S(=O)(=O)c2ccc(CNC(=O)c3cc4ccncc4s3)cc2)c1Cl`, in that order: 5.1 nM and 6.7 nM.
As to `COc1c(Cl)ccc(S(=O)(=O)c2ccc(CNC(=O)c3ccc4nccn4c3)cc2)c1Cl`, the half-inhibitory concentration (IC50) at NAMPT was 31.1 nM; in the experiment with A2780 cells, 13 nM.
As to `COc1c(Cl)ccc(S(=O)(=O)c2ccc(CNC(=O)c3cc4ccncc4o3)cc2)c1Cl`, the IC50 at NAMPT worked out at 17.7 nM; in the experiment with A2780 cells, 16.2 nM.
On the same counts, the results for `COc1c(Cl)ccc(S(=O)(=O)c2ccc(CNC(=O)c3cnc4nccn4c3)cc2)c1Cl` are 6.6 nM and 25.5 nM.
For `Cc1cc(C)c(S(=O)(=O)c2ccc(CNC(=O)c3cc4ccncc4o3)cc2)c(C)c1`, in that order: 59.2 nM and 100 to 1000 nM.
For `Cc1cc(C)c(S(=O)(=O)c2ccc(CNC(=O)c3cnc4nccn4c3)cc2)c(C)c1`, in that order: 28.8 nM and 100 to 1000 nM.
Regarding `CCOc1cc(S(=O)(=O)c2ccc(CNC(=O)c3cc4ccncc4s3)cc2)ccc1F`, the values for the 50% inhibitory concentration (IC50) at NAMPT and in the experiment with A2780 cells were 3.3 nM and 3.1 nM, respectively.
On the same counts, the results for `CCOc1cccc(S(=O)(=O)c2ccc(CNC(=O)c3cnc4[nH]ncc4c3)cc2)c1` are 14.6 nM and 19 nM.
On the same counts, the results for `CCOc1cccc(S(=O)(=O)c2ccc(CNC(=O)c3cnc4nccn4c3)cc2)c1` are 2.1 nM and 6.7 nM.
On the same counts, the results for `CCOc1cccc(S(=O)(=O)c2ccc(CNC(=O)c3ccc4nccn4c3)cc2)c1` are 5 nM and 3.1 nM.
Turning to `CCc1cccc(S(=O)(=O)c2ccc(CNC(=O)c3cnc4[nH]ncc4c3)cc2)c1`, the concentration for half-maximal inhibition (IC50) on NAMPT came to 7 nM; in the experiment with A2780 cells it was 7.1 nM.
With `CCc1cccc(S(=O)(=O)c2ccc(CNC(=O)c3cnc4nccn4c3)cc2)c1`, the results for the IC50 at NAMPT and with A2780 cells were 3.8 nM and 4.1 nM, respectively.
For `COc1c(F)cccc1S(=O)(=O)c1ccc(CNC(=O)c2cc3cnccc3[nH]2)cc1`, in that order: 32.4 nM and 6.3 nM.
For `COc1c(F)cccc1S(=O)(=O)c1ccc(CNC(=O)c2cnc3nccn3c2)cc1`, in that order: 28.9 nM and 100 to 1000 nM.
On the same counts, the results for `COc1c(F)cccc1S(=O)(=O)c1ccc(CNC(=O)c2cc3ccncc3s2)cc1` are 13.3 nM and 12.5 nM.
For `COc1c(F)cccc1S(=O)(=O)c1ccc(CNC(=O)c2cc3ccncc3o2)cc1`, the results for the IC50 at NAMPT and in the experiment on A2780 cells were 16.6 nM and 30.9 nM, respectively.
Turning to `Cc1c(F)cccc1S(=O)(=O)c1ccc(CNC(=O)c2cc3cnccc3[nH]2)cc1`, the IC50 at NAMPT is 57.6 nM; in the experiment on A2780 cells, 13.2 nM.
On the same counts, the results for `Cc1c(F)cccc1S(=O)(=O)c1ccc(CNC(=O)c2cnc3nccn3c2)cc1` are 8.1 nM and 65.6 nM.
For `Cc1c(F)cccc1S(=O)(=O)c1ccc(CNC(=O)c2cc3ccncc3o2)cc1`, in that order: 13.2 nM and 30.7 nM.
For `Cc1c(F)cccc1S(=O)(=O)c1ccc(CNC(=O)c2ccc3nccn3c2)cc1`, in that order: 46.9 nM and 13.2 nM.
As for `COc1ccc(S(=O)(=O)c2ccc(CNC(=O)c3cc4ccncc4o3)cc2)cc1F`, the IC50 worked out at 2.2 nM on NAMPT and 6.8 nM in the experiment with A2780 cells.
In the case of `Cc1ccc(S(=O)(=O)c2ccc(CNC(=O)c3cnc4[nH]ncc4c3)cc2)cc1F`, the IC50 was found to be 11.7 nM at NAMPT and 5.6 nM in the experiment with A2780 cells.
For `Cc1ccc(S(=O)(=O)c2ccc(CNC(=O)c3cc4ccncc4o3)cc2)cc1F`, in that order: 14 nM and 3.3 nM.
For `Cc1ccc(S(=O)(=O)c2ccc(CNC(=O)c3cnc4nccn4c3)cc2)cc1F`, in that order: 2.3 nM and 6.3 nM.
With `CCCOc1ccc(S(=O)(=O)c2ccc(CNC(=O)c3cnc4nccn4c3)cc2)cc1F`, the figures for the IC50 at NAMPT and in the experiment with A2780 cells were 2.7 nM and 3.3 nM, respectively.
On the same counts, the results for `CCCOc1ccc(S(=O)(=O)c2ccc(CNC(=O)c3cc4cnccc4[nH]3)cc2)cc1F` are 30.9 nM and 10.4 nM.
On the same counts, the results for `CCCOc1ccc(S(=O)(=O)c2ccc(CNC(=O)c3ccc4nccn4c3)cc2)cc1F` are 22.1 nM and 4.4 nM.
For `CCCOc1ccc(S(=O)(=O)c2ccc(CNC(=O)c3cc4ccncc4o3)cc2)cc1F`, in that order: 6.8 nM and 11.8 nM.
Turning to `COc1cc(F)cc(S(=O)(=O)c2ccc(CNC(=O)c3cnc4[nH]ncc4c3)cc2)c1`, the 50% inhibitory concentration (IC50) on NAMPT worked out at 4.4 nM; with A2780 cells, 6.3 nM.
For `COc1cc(F)cc(S(=O)(=O)c2ccc(CNC(=O)c3cnc4nccn4c3)cc2)c1`, in that order: 1.6 nM and 3.3 nM.
On the same counts, the results for `Cc1cc(F)cc(S(=O)(=O)c2ccc(CNC(=O)c3cc4ccncc4s3)cc2)c1` are 1 nM and 0.6 nM.
For the molecule `Cc1cc(F)cc(S(=O)(=O)c2ccc(CNC(=O)c3cnc4[nH]ncc4c3)cc2)c1`, the 50% inhibitory concentration (IC50) on NAMPT is 9.5 nM; in the experiment with A2780 cells, 5.6 nM.
On to `Cc1cc(F)cc(S(=O)(=O)c2ccc(CNC(=O)c3cc4cnccc4[nH]3)cc2)c1`, for which the values for the IC50 on NAMPT and in the experiment on A2780 cells were 8.3 nM and 1.8 nM, respectively.
On the same counts, the results for `Cc1cc(F)cc(S(=O)(=O)c2ccc(CNC(=O)c3cnc4nccn4c3)cc2)c1` are 1.5 nM and 5.4 nM.
As to `O=C(NCc1ccc(S(=O)(=O)c2cccc(F)c2)cc1)c1cnc2[nH]ncc2c1`, the concentration for half-maximal inhibition (IC50) at NAMPT came out at 33.9 nM; in the experiment on A2780 cells, 25.3 nM.
As for `O=C(NCc1ccc(S(=O)(=O)c2cccc(F)c2)cc1)c1cnc2nccn2c1`, the concentration for half-maximal inhibition (IC50) on NAMPT came out at 1.9 nM; in the experiment with A2780 cells, 22.1 nM.
On the same counts, the results for `O=C(NCc1ccc(S(=O)(=O)c2cccc(O)c2)cc1)c1ccc2nccn2c1` are 5 nM and 7 nM.
Regarding `CS(=O)(=O)c1cccc(S(=O)(=O)c2ccc(CNC(=O)c3cc4ccncc4s3)cc2)c1`, the IC50 was 1.7 nM on NAMPT and 3.5 nM with A2780 cells.
On the same counts, the results for `CS(=O)(=O)c1cccc(S(=O)(=O)c2ccc(CNC(=O)c3ccc4nccn4c3)cc2)c1` are 25.6 nM and 16 nM.
On the same counts, the results for `CS(=O)(=O)c1cccc(S(=O)(=O)c2ccc(CNC(=O)c3cc4ccncc4o3)cc2)c1` are 6 nM and 6.8 nM.
As to `COc1cc(S(=O)(=O)c2ccc(CNC(=O)c3cc4cnccc4[nH]3)cc2)ccc1C`, the figures for the half-maximal inhibitory concentration (IC50) on NAMPT and in the experiment with A2780 cells were 7.9 nM and 3 nM, respectively.
For `COc1cc(S(=O)(=O)c2ccc(CNC(=O)c3cc4ccncc4s3)cc2)ccc1C`, in that order: 2.7 nM and 1.5 nM.
For the molecule `COc1cc(S(=O)(=O)c2ccc(CNC(=O)c3cnc4nccn4c3)cc2)ccc1C`, the IC50 at NAMPT turned out to be 1.3 nM; in the experiment with A2780 cells it was 1.7 nM.
`COc1cc(S(=O)(=O)c2ccc(CNC(=O)c3cc4ccncc4o3)cc2)ccc1C`: the 50% inhibitory concentration (IC50) came to 4.6 nM at NAMPT and 3.1 nM in the experiment on A2780 cells.
Take `COc1cc(C)cc(S(=O)(=O)c2ccc(CNC(=O)c3cc4cnccc4[nH]3)cc2)c1`: the figures for the IC50 on NAMPT and in the experiment on A2780 cells were 9.6 nM and 2.8 nM, respectively.
For `COc1cc(C)cc(S(=O)(=O)c2ccc(CNC(=O)c3cnc4nccn4c3)cc2)c1`, the IC50 came to 1.6 nM at NAMPT and 1.3 nM in the experiment with A2780 cells.
On the same counts, the results for `COc1cc(C)cc(S(=O)(=O)c2ccc(CNC(=O)c3cc4ccncc4o3)cc2)c1` are 2.2 nM and 1.6 nM.
For `COc1cc(C)cc(S(=O)(=O)c2ccc(CNC(=O)c3ccc4nccn4c3)cc2)c1`, in that order: 5.3 nM and 1.6 nM.
For the molecule `COc1cc(C)cc(S(=O)(=O)c2ccc(CNC(=O)c3cc4ccncc4s3)cc2)c1`, the IC50 stood at 2.4 nM on NAMPT and 0.8 nM in the experiment on A2780 cells.
On the same counts, the results for `COc1cccc(S(=O)(=O)c2ccc(CNC(=O)c3cnc4[nH]ncc4c3)cc2)c1` are 20.9 nM and 10 nM.
For `COc1cccc(S(=O)(=O)c2ccc(CNC(=O)c3cc4ccncc4o3)cc2)c1`, in that order: 3.5 nM and 6.9 nM.
For `Cc1cccc(S(=O)(=O)c2ccc(CNC(=O)c3cnc4nccn4c3)cc2)c1`, in that order: 1.9 nM and 9.1 nM.
Take `O=C(NCc1ccc(S(=O)(=O)c2cccc(-c3ccccc3)c2)cc1)c1cc2cnccc2[nH]1`: the figures for the half-maximal inhibitory concentration (IC50) at NAMPT and in the experiment with A2780 cells were 2.3 nM and 11.9 nM, respectively.
On the same counts, the results for `O=C(NCc1ccc(S(=O)(=O)c2cccc(-c3ccccc3)c2)cc1)c1ccc2nccn2c1` are 12.2 nM and 6.8 nM.
For `O=C(NCc1ccc(S(=O)(=O)c2cccc(-c3ccccc3)c2)cc1)c1cnc2nccn2c1`, in that order: 0.9 nM and 3.3 nM.
On the same counts, the results for `O=C(NCc1ccc(S(=O)(=O)c2cccc(-c3ccccc3)c2)cc1)c1cc2ccncc2s1` are 4.5 nM and 10 nM.
With `CCCOc1cccc(S(=O)(=O)c2ccc(CNC(=O)c3cc4cnccc4[nH]3)cc2)c1`, the concentration for half-maximal inhibition (IC50) at NAMPT came to 10.2 nM; with A2780 cells it was 12.2 nM.
On the same counts, the results for `CCCOc1cccc(S(=O)(=O)c2ccc(CNC(=O)c3cc4ccncc4o3)cc2)c1` are 10.1 nM and 25.2 nM.
For `CCCOc1cccc(S(=O)(=O)c2ccc(CNC(=O)c3ccc4nccn4c3)cc2)c1`, in that order: 4.2 nM and 6.3 nM.
On the same counts, the results for `CCCOc1cccc(S(=O)(=O)c2ccc(CNC(=O)c3cnc4nccn4c3)cc2)c1` are 4.8 nM and 7.5 nM.
As to `CCCOc1cccc(S(=O)(=O)c2ccc(CNC(=O)c3cc4ccncc4s3)cc2)c1`, the IC50 came out at 4 nM at NAMPT and 12.2 nM in the experiment with A2780 cells.

Source of the values: patent US12336981B2, “Compounds and compositions for the inhibition of NAMPT” (Valo Health, Inc., priority 2010, dated 2025).
